From publication PMC8950706, “Influence of Substitutions in the Binding Motif of Proline-Rich Antimicrobial Peptide ARV-1502 on 70S Ribosome Binding and Antimicrobial Activity” (International Journal of Molecular Sciences, 2022)
Square brackets hold non-standard residues; d marks the D form. Peptide text beside a SMILES is read from it. Ac6c = NC1(C(=O)O)CCCCC1

What was measured:
E. coli 70S ribosome [1] = assay: Competitive fluorescence polarization assay against Cf-Api137 (Ki); type: binding; settings: Supplementary Figure S3; read-out: Ki as competitor of Cf-Api137
Description: (§1) Dissociation and inhibitory constants were determined in black 384-well-plates (Greiner Bio-One GmbH, Frickenhausen, Germany) blocked with 0.5% (w/v) casein in phosphate buffered saline (PBS, 8.8 mmol/L Na2HPO4×12 H2O, 1.2 mmol/L KH2PO4, 0.3 mol/L NaCl, pH 7.4) containing 0.05% (w/v) Tween® 20 (PBST) overnight at 4 °C and washed three times with PBST.
(§2) Ribosome solution was added (10 µmol/L) and the plate was incubated after centrifugation (2 min, 500× g, Rotor S2096, Allegra^TM 21R, Beckmann Coulter) at 28 °C for 90 min. Cf-labeled peptide was added (10 µL; final concentration of 20 nmol/L; final ribosome concentration of 0.5 µmol/L) and the plate was centrifuged and incubated again (90 min, 28 °C, dark). Fluorescence polarization was recorded (λex = 485 nm, λem = 535 nm) on a […]^TM microplate reader. Kd and IC50 values were calculated by fitting the data with a variable slope parameter [y = min + (max − min)/(1 + (x/Kd) ^−Hill slope) ] using SigmaPlot 13 (Systat Software Inc., San Jose, CA, USA). The obtained IC50 values were used to calculate the Ki values.

E. coli 70S ribosome [2] = assay: Competitive fluorescence polarization assay against Cf-Onc112 (Ki); type: binding; settings: Supplementary Figure S3; read-out: Ki as competitor of Cf-Onc112
Description: as §1, §2

## CC(C)C[C@H](NC(=O)[C@H](Cc1ccc(O)cc1)NC(=O)[C@@H]1CCCN1C(=O)[C@H](CCCNC(=N)N)NC(=O)[C@@H]1CCCN1C(=O)[C@H](CCCCN)NC(=O)[C@H](CC(=O)O)NC(=O)[C@@H]1CCCN1C(=O)[C@H](CCCNC(=N)N)NC(=O)C1(N)CCCCC1)C(=O)N1CCC[C@H]1C(=O)N[C@@H](CCCNC(=N)N)C(=O)N1CCC[C@H]1C(=O)N[C@@H](CCCNC(=N)N)C(=O)N1CCC[C@H]1C(=O)N1CCC[C@H]1C(=O)N[C@@H](CCCNC(=N)N)C(=O)N1CCC[C@H]1C(=O)N[C@H](C(=O)N[C@@H](CCCNC(=N)N)C(N)=O)C(C)C [ARV-1502] (H-[Ac6c]RPDKPRPYLPRPRPPRPVR-NH2)
E. coli 70S ribosome [1]
  Ki: 3140 nM
E. coli 70S ribosome [2]
  Ki: 120 nM
